Assay results published in patent US20150189882A1, “ACTIVE INGREDIENT COMBINATIONS HAVING INSECTICIDAL AND ACARICIDAL PROPERTIES” (priority 2011, published 2015).
Like-named read-outs stand apart in the source and are kept apart here.

Key:
[1] = tested on: Myzus persicae; experiment: whole plant or invertebrate; conditions: in Brassica rapa, foliar
[2] = tested on: Phaedon cochleariae larvae; experiment: whole plant or invertebrate
[3] = tested on: Spodoptera frugiperda; experiment: Spodoptera frugiperda - spray application; format: in vivo; conditions: for mortality at 20 g/ha: 20 g ai/ha
Experimental: (§1) To produce a suitable preparation of active compound, 1 part by weight of active compound is mixed with the stated amount of solvent and emulsifier, and the concentrate is diluted with emulsifier-containing water to the desired concentration. To produce a suitable preparation of a biological suspension the cells, viruses or spores are diluted with emulsifier-containing water to the desired concentration.
Cabbage (Brassica oleracea) leaf-discs are sprayed with a preparation of the active ingredient at the desired concentration. Once dry, the leaf discs are infested with larvae of the fall army worm (Spodoptera frugiperda).
After the specified period of time, mortality in % is determined. 100% means that all the caterpillars have been killed; 0% means that none of the caterpillars have been killed. The mortality values thus determined are recalculated using the Colby-formula.

[4] = tested on: Tetranychus urticae (OP-resistant); experiment: Tetranychus urticae - test (OP-resistant), French bean leaf discs; format: in vivo; conditions: for mortality at 0.16 g/ha: 0.16 g ai/ha; for mortality at 500 g/ha: 500 g ai/ha
Experimental: as §1, with “cells” for “cells, viruses”
Leaf discs of French beans (Phaseolus vulgaris) infected with all instars of the Two-spotted spider mite (Tetranychus urticae), are sprayed with a preparation of the active ingredient at the desired concentration.
After the specified period of time mortality in % is determined. 100% means that all spider mites have been killed; 0% means that none of the spider mites have been killed.

[5] = tested on: Phaedon cochleariae larvae
[6] = tested on: Myzus persicae
[7] = read-out: Mortality in % after 6^d
[8] = read-out: Mortality in % after 2^d
[9] = Spodoptera frugiperda, 0.16 g ai/ha, read-out: Mortality in % after 6^d
[10] = Tetranychus urticae, foliar, 0.8 g ai/ha, read-out: Mortality in % after 2^d
[11] = read-out: Mortality in % after 1^d
[12] = Tetranychus urticae, foliar, read-out: Mortality in % after 2^d
[13] = Spodoptera frugiperda, read-out: Mortality in % after 2^d
[14] = Tetranychus urticae, foliar, 4 g ai/ha, read-out: Mortality in % after 2^d

## CC1(C)[C@H](C(=O)O[C@H](C#N)c2cccc(Oc3ccccc3)c2)[C@@H]1/C=C(\Cl)C(F)(F)F (racemic) [Lambda-Cyhalothrin, lambda-Cyhalothrin]
[1]; [7]
  mortality at 0.16 g/ha: 0%
[2]; [8]
  mortality at 0.8 g/ha: 67%
[3]; [9]
  mortality at 0.16 g/ha: 33%

## COC(=O)N(C(=O)N1CO[C@@]2(C(=O)OC)Cc3cc(Cl)ccc3C2=N1)c1ccc(OC(F)(F)F)cc1 [Indoxacarb]
[3]; 0.8 g ai/ha
  Mortality in % after 6^d: 50%

## O=C(NC(=O)c1c(F)cccc1F)Nc1ccc(Oc2ccc(C(F)(F)F)cc2Cl)cc1F [Flufenoxuron]
[2]; [7]
  mortality at 20 g/ha: 0%
[4]; [10]
  mortality at 0.8 g/ha: 0%

## Cc1c(COC(=O)[C@@H]2[C@H](/C=C(\Cl)C(F)(F)F)C2(C)C)cccc1-c1ccccc1 (racemic) [Bifenthrin]
[2]; [7]
  mortality at 0.8 g/ha: 50%
[3]; [9]
  mortality at 0.16 g/ha: 0%

## CC1(C)C(C=C(Cl)Cl)C1C(=O)OC(C#N)c1cccc(Oc2ccccc2)c1 (stereo not drawn) [Cypermethrin]
[3]; Spodoptera frugiperda, 0.8 g ai/ha, read-out: Mortality in % after 6^d
  mortality at 0.8 g/ha: 67%

## CCOCn1c(-c2ccc(Cl)cc2)c(C#N)c(Br)c1C(F)(F)F [Chlorfenapyr]
[4]; [10]
  mortality at 0.8 g/ha: 0%

## CCOP(=S)(OCC)Oc1nc(Cl)c(Cl)cc1Cl [Chlorpyrifos]
[1]; [11]
  mortality at 4 g/ha: 70%
[4]; [12]
  mortality at 4 g/ha: 0%
[3]; [13]
  mortality at 100 g/ha: 50%

## N#C/N=C1\SCCN1Cc1ccc(Cl)nc1 [Thiacloprid]
[2]; [7]
  mortality at 20 g/ha: 33%
[3]; Spodoptera frugiperda, read-out: Mortality in % after 6^d
  mortality at 20 g/ha: 0%

## CC1(C)C(C=C(Cl)Cl)C1C(=O)OC(C#N)c1cccc(Oc2ccccc2)c1 (stereo not drawn) [Alpha-Cypermethrin, alpha-Cypermethrin]
[2]; [7]
  mortality at 4 g/ha: 0%
[4]; [12]
  mortality at 0.16 g/ha: 0%

## Cc1ccc(C(C)C)c(O)c1 [Thymol]
[4]; Tetranychus urticae, foliar, read-out: Mortality in % after 6^d
  mortality at 500 g/ha: 0%

## Spinetoram
[4]; 0.8 g ai/ha
  Mortality in % after 2^d: 0%

## O=[N+]([O-])NC1=NCCN1Cc1ccc(Cl)nc1 [Imidacloprid]
[1]; [11]
  mortality at 0.8 g/ha: 0%
[2]; [7]
  mortality at 20 g/ha: 0%
[4]; [10]
  mortality at 0.8 g/ha: 0%

## CCc1nn(C)c(C(=O)NCc2ccc(C(C)(C)C)cc2)c1Cl [Tebufenpyrad]
[4]; [14]
  mortality at 4 g/ha: 0%

## O=C(NC(=O)c1ccccc1Cl)Nc1ccc(OC(F)(F)F)cc1 [Triflumuron]
[2]; [7]
  mortality at 20 g/ha: 0%
[3]; [13]
  mortality at 20 g/ha: 0%

## Lepimectin
[5]; 4 g ai/ha
  Mortality in % after 2^d: 50%

## CC1=NNC(=O)N(/N=C/c2cccnc2)C1 [Pymetrozine]
[1]; [7]
  mortality at 4 g/ha: 0%

## Emamectin benzoate [Emamectin-benzoate]
[5]; 0.8 g ai/ha
  Mortality in % after 2^d: 67%

## CC1(C)C(C=C(Cl)Cl)C1C(=O)OC(C#N)c1ccc(F)c(Oc2ccccc2)c1 (stereo not drawn) [Beta-Cyfluthrin, beta-Cyfluthrin]
[5]; 0.8 g ai/ha
  Mortality in % after 6^d: 50%
[3]; 0.8 g ai/ha
  Mortality in % after 6^d: 83%

## CC1(C)[C@H](C(=O)O[C@H](C#N)c2cccc(Oc3ccccc3)c2)[C@@H]1/C=C(\Cl)C(F)(F)F [Gamma-Cyhalothrin, gamma-Cyhalothrin]
[3]; 0.16 g ai/ha
  Mortality in % after 2^d: 0%

## Milbemectin
[3]; 0.8 g ai/ha
  Mortality in % after 6^d: 0%
[6]; 4 g ai/ha
  Mortality in % after 6^d: 70%

## CC1(C)[C@H](C(=O)O[C@H](C#N)c2cccc(Oc3ccccc3)c2)[C@@H]1/C=C\C(=O)OC(C(F)(F)F)C(F)(F)F [Acrinathrin]
[1]; [11]
  mortality at 0.8 g/ha: 80%

## CC(c1ccc(C(F)(F)F)nc1)S(C)(=O)=NC#N (stereo not drawn) [Sulfoxaflor]
[1]; [11]
  mortality at 0.16 g/ha: 0%
[2]; [7]
  mortality at 4 g/ha: 0%
[4]; [12]
  mortality at 0.16 g/ha: 0%

## O=S(=O)(CCC(F)=C(F)F)c1ncc(Cl)s1 [Fluensulfone]
[4]; 2000 g ai/ha
  Mortality in % after 2^d: 0%

## C/C=C(\C)C(=O)O[C@H]1C[C@@H](OC(C)=O)[C@@]2(C(=O)OC)CO[C@H]3[C@@H](O)[C@@](C)([C@]45O[C@@]4(C)[C@H]4C[C@@H]5O[C@@H]5OC=C[C@@]54O)[C@H]4[C@]1(CO[C@]4(O)C(=O)OC)[C@@H]32 [Azadirachtin]
[1]; [7]
  mortality at 100 g/ha: 0%
[4]; Tetranychus urticae, foliar, 100 g ai/ha, read-out: Mortality in % after 2^d
  mortality at 100 g/ha: 0%

## Spinosad
[4]; 0.8 g ai/ha
  Mortality in % after 2^d: 0%

## CN/C(=N\[N+](=O)[O-])NCc1cnc(Cl)s1 [Clothianidin]
[1]; [11]
  mortality at 20 g/ha: 0%
[2]; [7]
  mortality at 20 g/ha: 83%

## O=C1C=C(N(Cc2ccc(Cl)nc2)CC(F)F)CO1 [Flupyradifurone]
[5]; 500 g ai/ha
  Mortality in % after 2^d: 50%
[4]; 0.8 g ai/ha
  Mortality in % after 2^d: 0%
[6]; 20 g ai/ha
  Mortality in % after 1^d: 70%

## N#Cc1nn(-c2c(Cl)cc(C(F)(F)F)cc2Cl)c(N)c1[S+]([O-])C(F)(F)F (stereo not drawn) [Fipronil]
[2]; [8]
  mortality at 0.16 g/ha: 0%
[4]; [10]
  mortality at 0.8 g/ha: 0%

## CNC(=O)c1cc(Cl)cc(C)c1NC(=O)c1cc(Br)nn1-c1ncccc1Cl [Chloranthraniliprole, Chlorantraniliprole]
[1]; [7]
  mortality at 4 g/ha: 80%
[2]; [7]
  mortality at 0.8 g/ha: 33%

## CN/C(=N/CC1CCOC1)N[N+](=O)[O-] (stereo not drawn) [Dinotefuran]
[1]; [11]
  mortality at 20 g/ha: 0%
[2]; [7]
  mortality at 20 g/ha: 0%

## CCN(Cc1ccc(Cl)nc1)/C(=C/[N+](=O)[O-])NC [Nitenpyram]
[2]; [7]
  mortality at 20 g/ha: 0%
[4]; [10]
  mortality at 0.8 g/ha: 0%

## Cc1c(F)c(F)c(COC(=O)[C@@H]2[C@H](/C=C(\Cl)C(F)(F)F)C2(C)C)c(F)c1F (racemic) [Tefluthrin]
[2]; [7]
  mortality at 20 g/ha: 50%
[4]; [10]
  mortality at 0.8 g/ha: 0%

## Abamectin
[4]; 0.032 g ai/ha
  Mortality in % after 2^d: 0%

## CS/C(C)=N\OC(=O)N(C)SN(C)C(=O)O/N=C(\C)SC [Thiodicarb]
[2]; [7]
  mortality at 100 g/ha: 0%
[4]; [14]
  mortality at 4 g/ha: 0%

## CC1(C)[C@H](C(=O)O[C@H](C#N)c2cccc(Oc3ccccc3)c2)[C@@H]1C=C(Br)Br [Deltamethrin]
[3]; Spodoptera frugiperda, 0.032 g ai/ha, read-out: Mortality in % after 6^d
  mortality at 0.032 g/ha: 0%

## C/C(=N\C#N)N(C)Cc1ccc(Cl)nc1 [Acetamiprid]
[2]; [7]
  mortality at 20 g/ha: 33%

## CC(=O)N1C(=O)N(NCc2cccnc2)Cc2cc(C(F)(C(F)(F)F)C(F)(F)F)ccc21 [Pyrifluquinazone, Pyrifluquinazon]
[4]; 0.8 g ai/ha
  Mortality in % after 2^d: 0%

## CC(C)N1C(=O)N(c2ccccc2)CS/C1=N\C(C)(C)C [Buprofezin]
[4]; [12]
  mortality at 500 g/ha: 0%

## O=C(NC(=O)c1c(F)cccc1F)Nc1ccc(Cl)cc1 [Diflubenzuron]
[4]; [14]
  mortality at 4 g/ha: 0%
[3]; Spodoptera frugiperda, 100 g ai/ha, read-out: Mortality in % after 2^d
  mortality at 100 g/ha: 67%

## CN1COCN(Cc2cnc(Cl)s2)/C1=N\[N+](=O)[O-] [Thiamethoxam]
[2]; [8]
  mortality at 20 g/ha: 67%
